Laboratory results from patent US20060078921A1, “Biomarkers and expression profiles for toxicology” (priority 2002, published 2006).

Tests used:
GADD-45 = experiment: RT-PCR of GADD-family genes in liver, GADD-45; design: species or system Wistar rats; conditions: rat liver, in vivo
Description: (§1) The induction of these genes correlates with the histopathological findings in a time related fashion: While PEG-3 seems to be an early marker, GADD-45 and GADD-143 appear regulated at later time points, when the tissue damage is obvious by conventional endpoints.

GADD-153 = experiment: RT-PCR of GADD-family genes in liver, GADD-153; design: species or system Wistar rats; conditions: rat liver, in vivo
Description: as §1

PEG-3 = experiment: RT-PCR of GADD-family genes in liver, PEG-3; design: species or system Wistar rats; conditions: rat liver, in vivo
Description: as §1

[1] = Classification of liver expression profiles with support vector machines; design: species or system Wistar rats; conditions: compounds not present in the initial training set, individual animals, 5 SVMs
Method: Adult male Wistar rats were dosed in vivo and the resulting expression profile in liver was determined. SVMs were built for the discrimination between 3 different classes of hepatotoxicants, non-toxic substances and controls. The training set consisted of 180 gene expression profiles from individual animals treated with direct acting, cholestatic, steatotic, non-toxic compounds and corresponding vehicle-dosed controls. As a first step the chips were rescaled to a median value of 0 and a standard deviation of 1. Subsequently chips were presented to a linear kernel SVM (for classifier training the SVM software package from William Stafford Noble, Department of Computer Science, Columbia University, New York was used. Procedures for the Recursive Feature Elimination (RFE), automation of the whole training cycles and further data analysis were developed in house, using the PERL language.) Single binary classifiers for each category of chips were obtained by training one group against all others (‘One-vs-All’ training method). Multi-class classification for a given test chip was then carried out by combining the outputs of all binary classifiers. A leave-one-out cross validation procedure was applied to assess the quality of the trained machines with respect to the training data. […]

liver = conditions: man, cited from earlier work
AH-Receptor = experiment: Affymetrix GeneChip liver expression, AH-R; assay type: in vivo, Wistar rats; conditions: rat liver, 24 H, control = 1.0
Method: Male Wistar rats (generally 5 animals/dose-group) were purchased from BRL (Füllingsdorf, Switzerland) and housed individually. Treated animals were dosed either orally, intraperitoneally, or intravenously with several doses of test compounds (Table 1). […] Control animals received the same volume of vehicle as placebo. Necropsy was performed 6 or 24 hours after a single administration and liver samples from the left medial lobe were placed immediately in RNALater (Ambion, Tex., USA) for RNA extraction and gene expression analysis. Samples in RNALater were stored at −20° C. until further processing.
For RNA isolation from liver tissue, a portion of tissue of approximately 100 mg was transferred to a tube containing 1.2 ml RNAzol. […] Total RNA was isolated according to the manufacturer's instruction and quantified by measuring the optical density at 280 nm. The quality of RNA was assessed with gel electrophoresis. […]
After hybridization and scanning, the expression level of each gene was calculated by subtracting the fluorescence intensity of the mismatch probes from the match signal (=average difference) using the [sequence] […] Gene expression data were further analyzed with an in-house-developed data analysis tool (RACE-A, Hoffmann-La Roche, Basel, Switzerland). […] Analyzed data were stored in a toxicogenomics database (RACE-R, Hoffmann-La Roche, Basel, Switzerland). […]

[2] = test system: candidate marker genes (Table 4); experiment: RT-PCR of candidate marker genes to differentiate toxic and non-toxic 5-HT6 receptor antagonists (FIG. 10); assay type: in vivo, Wistar rats; conditions: rat liver, some of the selected genes
Method: The regulation of the mRNA levels of several candidate genes (Table 4) was verified with quantitative RT-PCR. Specific primers for these genes have been designed in order to evaluate the expression with RT-PCR using SybrGreen assay (Table 6). For each performed RT-PCR reaction, the specificity of the assay was evaluated with dissociation curve software (Applied Biosystems), as well as by assessment of the size of the product using either gel electrophoresis or Agilent Bioanalyzer.
In a first step, the induction of the mRNA levels of 9 candidate genes (Table 5 and FIG. 10) was verified with quantitative PCR. […] As an internal control, the house-keeping gene glycernine-aldehyde-phosphate-dehydrogenase (GAPDH) was also analyzed.

EGR1 = experiment: EGR-1 induction in rats (RT-PCR); assay type: in vivo; conditions: confirmed by RT-PCR
Method: Tolcapone (Tasmar) is a human hepatotoxin with no known toxicity in the rat.
§: The compounds were administered to the experimental animals three times, every 12 Hours. Animals were sacrificed 3 hours after the last administration. Shaded cells represent significant induction (threshold usually 2-fold induction).

SMILES	induction of GADD-45 (RT-PCR) (GADD-45)	induction of GADD-153 (RT-PCR) (GADD-153)	induction of PEG-3 (RT-PCR) (PEG-3)	other results
Clc1ccccc1Cl [1,2-dichlorobenzene]	induction	induction	induction	SVM classification of compound class from liver expression profiles [1]: direct acting compound
CN(C)CCCN1c2ccccc2Sc2ccc(Cl)cc21 [Chlorpromazine]				treated patients who develop jaundice (liver): Up to 1%
NN [Hydrazine]	induction	induction	induction	
Nc1ccc(S(=O)(=O)c2cc(Br)nc(N3CCCC3)c2)cc1 [Ro66-0074, 4-(2-Bromo-6-pyrrolidin-1-yl-pyridine-4-sulfonyl)-phenylamine]				AH-R Affymetrix (AH-Receptor): 1.0; expression levels of selected marker genes (RT-PCR, FIG. 10) [2]: slight induction
Nc1c2c(nc3ccccc13)CCCC2 [Tacrine]				incidence of hepatotoxicity in treated patients (liver; Alzheimer's disease patients): 40-50%
CC(=N)S [Thioacetamide]	induction	induction	induction	
Cc1ccc(C(=O)c2cc(O)c(O)c([N+](=O)[O-])c2)cc1 [Tolcapone]				induction of EGR1 (EGR1; high dose 300 mg/kg): slight induction
O=C(O)CCCCCCNC1c2ccccc2CCc2ccccc21 [amineptine]				SVM classification of compound class from liver expression profiles [1]: steatotic compound
O=[N+]([O-])c1ccc(O)c([N+](=O)[O-])c1 [dinitrophenol, Dinitrophenol]				induction of EGR1 (EGR1; 10 and 30 mg/kg): slight induction
